Measurements published in patent publication US20230141718A1, “METHODS OF TREATING GLIOBLASTOMA” (CELGENE QUANTICEL RESEARCH, INC., priority 2021, published 2023).
“And” between values parts separate entries of the source, which are not always exact repeats. Equal values may be shown once. Read-outs that look alike come from different tables or passages of the source.

Key:
[1] = Safety (treatment-related adverse events), CC-90010-GBM-001; assay type: in vivo, human
Source text: The primary objectives of the study in this example were determination of tumor tissue concentration and plasma pharmacokinetics (PK) of Compound A. The secondary and exploratory objectives included safety, antitumor activity, cerebrospinal fluid concentration, and pharmacodynamics (PD).
The study described in this example (CC-90010-GBM-001 study/NCT04047303) enrolled patients with progressive or recurrent astrocytoma or recurrent glioblastoma who have failed radiation and chemotherapy, and who are candidates for surgical tumor resection as part of their salvage regimen.
Patients were treated with Compound A at 30 mg daily on Day 1 to Day 4 prior to undergoing indicated tumor resection and to maintain platelet count above the minimum of […] recommended for surgery (Part A, preoperative treatment). Following recovery from surgery and a minimum of 4 weeks from the first dose of Compound A, subjects who were fit to continue were treated with Compound A at 45 mg on a 4 days on/24 days off schedule (180 mg per 28-day cycle). Maintenance treatment continued until disease progression, unacceptable toxicity, or withdrawal of consent.

[2] = Safety (TRAEs/TEAEs), CC-90010-GBM-002 Parts A and B; assay type: in vivo
Source text: This was then followed by a break in treatment therapy, e.g., from 1 to up to 4 weeks. […] Adjuvant therapy cycles were repeated from 2 to 6 times. After adjuvant therapy, was a monotherapy treatment.
The demographics and characteristics of treated patients are described in the below table.

[3] = Plasma pharmacokinetics of Compound A, CC-90010-GBM-002; assay type: in vivo, human; parameters: AUC / AUC(0-inf): concentration or dose not given beside the values; conditions: for Cmax / AUC / AUC(0-inf): geometric mean; for tmax: median; for AUC: read-out: AUC24
Source text: The primary objectives of the study in this example were to establish the safety, maximum tolerated dose (MTD), and recommended phase 2 dose (RP2D) of Compound A. The preliminary efficacy, pharmacokinetics, and pharmacodynamics were also investigated.
The study described in this example (CC-90010-GBM-002/NCT04324840) is a phase 1B dose-finding study investigating standard of care of Compound A in combination with TMZ with or without radiotherapy (RT) in subjects with newly diagnosed GBM. Part A of the study is escalating the oral doses of Compound A in combination with adjuvant TMZ to estimate the MTD and/or the RP2D of Compound A as adjuvant therapy and escalating the oral doses of Compound A in combination with concomitant TMZ+radiotherapy (RT) to estimate the MTD and/or the RP2D of Compound A as concomitant therapy. Part B of the study is the safety and efficacy of Compound A administered at or below the MTD determined for the adjuvant therapy (AT) and concomitant therapy (CT).
For adjuvant therapy, Compound A and TMZ was administered for 6 cycles, then Compound A as a monotherapy was administered in 28-day cycles until disease progression, start of a new anticancer therapy, or withdrawal of consent or physician's decision. For adjuvant therapy, Compound A was administered at 15, 30, and 45 mg 4 days on/24 days off and TMZ was administered at 150 or 200 mg/m^2 QD Days 1-5, followed by Compound A at 45 mg 4 days on/24 days off. For adjuvant therapy, part B, Compound A was administered at RP2D and TMZ was administered at 150 or 200 mg/m^2, followed by Compound A at 45 mg 4 days on/24 days off.
For concomitant therapy, Compound A, TMZ, and RT were administered for 6 weeks, then 4-week break, followed by adjuvant Compound A and TMZ for 6 cycles then Compound A monotherapy in 28-day cycles until disease progression, start of a new anticancer therapy, withdrawal of consent or physician's decision. For concomitant therapy, part A, Compound A was administered at 15 mg or 30 mg QD Days 1-4 (weeks 1,5), TMZ was administered at 75 mg/m^2/day QD, and RT was administered at 2 Gy QD×5 days/week, for 42 days. This was then followed by a break in treatment therapy, e.g., from 1 to up to 4 weeks. Thereafter, adjuvant therapy was initiated by administering Compound A at 30 mg or 45 mg and TMZ at 150 or 200 mg/m^2 QD Days 1-5 of a 28-day cycle. Adjuvant therapy cycles were repeated from 2 to 6 times. After adjuvant therapy, was a monotherapy treatment. Monotherapy comprised administering Compound A at 45 mg 4 days on/24 days off.
Data presented as geometric mean (geometric CV %) for AUC and Cmax, mean (SD) for t1/2, and median (range) for tmax. AI AUC, accumulation index ratio of exposure measured at Day 4 to that after Day 1; AI Cmax, accumulation index ratio of maximum observed concentration at Day 4 to that after Day 1; AUC24, area under the concentration-time curve within a 24-hour dosing interval; Cmax, maximum observed concentration; NA, not applicable; t1/2, apparent terminal phase half-life.

[4] = human, plasma, oral, LD, Part A
[5] = human, plasma, oral, LD, Part B

SMILES: Cn1cc(-c2cc(S(C)(=O)=O)ccc2OCC2CC2)c2ccccc2c1=O [Compound A, 4-[2-(cyclopropylmethoxy)-5-methylsulfonylphenyl]-2-methylisoquinolin-1-one]
- patients with Grade 3/4 TRAEs ([1]; N=20): 45%
- patients with grade 3/4 thrombocytopenia ([1]; N=20): 25%
- patients with serious TRAEs (hemiparesis and lethargy) ([1]; N=20): one
- patients with ≥1 treatment-related adverse event (TRAE) ([1]; N=20): 90%
- tolerability ([1]; in vivo): well tolerated
- patients with Grade 3/4 TRAEs ([2]; Part A adjuvant cohort): 56%
- patients with TEAEs leading to treatment discontinuation ([2]; Part A adjuvant cohort): 11%
- patients with any-grade gastrointestinal TRAEs ([2]; Part A adjuvant cohort): 78%
- patients with grade 3/4 diarrhea ([2]; Part A adjuvant cohort): one
- patients with thrombocytopenia TRAE, any grade ([2]; Part A adjuvant cohort): 72%
- patients with thrombocytopenia TRAE, grade 3/4 ([2]; Part A adjuvant cohort): 50%
- patients with any-grade TRAEs ([2]; Part A adjuvant cohort (Compound A + TMZ)): 94%
- patients with Grade 3/4 TRAEs ([2]; Part A concomitant cohort): 64%
- patients with TEAEs leading to treatment discontinuation ([2]; Part A concomitant cohort): 7%
- patients with gastrointestinal TRAEs ([2]; Part A concomitant cohort): 93%
- patients with grade 3/4 TRAE of diarrhea ([2]; Part A concomitant cohort): 7%
- patients with nausea, any-grade TRAE ([2]; Part A concomitant cohort): 79%
- patients with thrombocytopenia, any grade ([2]; Part A concomitant cohort): 71%
- patients with thrombocytopenia, grade 3/4 ([2]; Part A concomitant cohort): 50%
- patients with any-grade TRAEs ([2]; Part A concomitant cohort (Compound A + TMZ + RT)): 100%
- treatment-related deaths ([2]; Part A, both cohorts): no treatment-related deaths
- patients with Grade 3/4 TRAEs related to Compound A ([2]; Part B): 29%
- patients with Grade 3/4 neutropenia related to Compound A ([2]; Part B): 18%
- patients with Grade 3/4 thrombocytopenia related to Compound A ([2]; Part B): 18%
- patients with TRAE leading to treatment discontinuation ([2]; Part B arm A): 4%
- patients with TRAEs related to Compound A ([2]; Part B arm A): 86%
- patients with diarrhea related to Compound A ([2]; Part B arm A): 43%
- patients with nausea related to Compound A ([2]; Part B arm A): 46%
- patients with thrombocytopenia related to Compound A ([2]; Part B arm A): 46%
- tolerability in long-term follow-up ([2]; adjuvant Compound A plus TMZ and concomitant Compound A plus TMZ and RT): well tolerated
- Exposure versus dose ([3]; 15, 30, 45 mg with TMZ): increased proportionally with dose
- Cmax ([3]; D1, GBM-002 (Part A) (n = 6)): 306 ng/mL
- tmax ([3]; D1, Part A): 2.0 h
- Day 4 time to peak Compound A concentration ([3]; Day 4): 0.5 to 2.0 h and 0.5 to 4.0 h
- Cmax ([3]; LD, GBM-002 (Part A) (n = 6)): 822 ng/mL
- T1/2 ([3]; LD, Part A, mean): 68 h
- tmax ([3]; LD, Part A): 1.5 h
- AI AUC24 (accumulation index ratio, Day 4 to Day 1) ([3]; Part A): 3.05
- AI Cmax (accumulation index ratio, Day 4 to Day 1) ([3]; Part A): 2.69
- AI AUC24 (accumulation index ratio, Day 4 to Day 1) ([3]; Part B): 2.61
- AI Cmax (accumulation index ratio, Day 4 to Day 1) ([3]; Part B): 2.11
- effect of coadministration with RT and TMZ on Compound A PK ([3]; Part B): did not appear to impact Compound A PK
- Cmax ([3]; human, plasma, oral, D1, GBM-002 (Part B) (n = 17), read-out: Cmax): 350 ng/mL
- AUC ([3]; human, plasma, oral, D1, Part A): 4580 ng·h/mL
- AUC ([3]; human, plasma, oral, D1, Part B): 4890 ng·h/mL
- Cmax ([3]; human, plasma, oral, LD, GBM-002 (Part B) (n = 17), read-out: Cmax): 740 ng/mL
- AUC(0-inf) [3, 4]: 49800 ng·h/mL
- AUC [3, 4]: 13900 ng·h/mL
- AUC(0-inf) [3, 5]: 48700 ng·h/mL
- AUC [3, 5]: 12700 ng·h/mL
- half-life ([3]; human, plasma, oral, LD, Part B, mean, read-out: T1/2 (converted)): 58 h
- half-life ([3]; human, plasma, oral, read-out: mean terminal half-life): 60 to 70 h
